The results in this text go back to US8440592B2, “Use of abscisic acid combinations for thinning” (Valent BioSciences Corporation, priority 2007, dated 2013).

In experiment [1] the test system is Empire apple trees. In words: Example 5: crop load and fruit size of Empire apple trees. Type of experiment: in vivo. The note with it: 100 ppm BA or mixture of 100 ppm BA and 1000 ppm ABA; sprayed at 8 mm fruit size; harvested at maturity. As to the method:
Empire apple trees were selected for tree size and uniformity of bloom. Treatments were applied to five replicate trees per treatment when the average fruit size was 8 mm. BA at 100 ppm was applied as a dilute solution sprayed on whole trees to the drip point on five trees. […] Five trees were left untreated to act as control trees. At the end the season when the fruit were mature all the fruit were harvested and the number of fruit per tree and the average fruit size were determined.

Experiment [2] concerns Pioneer McIntosh apple trees. In words: Example 4: fruit set of Pioneer McIntosh apple trees after BA and ABA sprays. Type of experiment: in vivo. The note with it: 75 ppm BA whole-tree spray, 300 ppm ABA on tagged limbs, or sequential BA then ABA, applied at 9 mm fruit size; for % Fruit Set: counted after June drop. As to the method: Pioneer McIntosh apple trees were selected for uniformity of bloom and 2 limbs per tree were tagged and all blossom clusters on the tagged limbs were counted. Treatments were applied to four replicate trees per treatment when the average fruit size was 9 mm. BA at 75 ppm was applied as a dilute solution sprayed on whole trees to the drip point on two of the four trees in each replication. […] The solution was shaken and then allowed to sit for 5 minutes. […] The fourth tree in each block received no spray and served as the control. At the end of the June drop period in July, all fruit on the tagged limbs was counted and recorded.

Experiment [3] relates to Cabernet Franc grapes. In words: Example 2: dipping Cabernet Franc flower clusters at full bloom, berry number and cluster compactness. The note with it: clusters dipped at full bloom; 300 ppm ABA, 10 ppm GA3 or 300 ppm ABA mixed with 10 ppm GA3; n = 10 clusters. Type of experiment: in vivo, grape. As to the method:
One cluster was tagged and treated with each of the treatments on each of 10 vines. The clusters were harvested at commercial maturity and berry number and cluster compactness were evaluated.

In experiment [4] the test system is Cabernet Franc grapes. In words: Example 1: dipping Cabernet Franc flower clusters at full bloom, berry number and cluster compactness. Type of experiment: in vivo, grape. The note with it: clusters dipped at full bloom; 10 ppm GA3, 300 ppm ABA or both together; harvested at commercial maturity; n = 10 clusters. As to the method:
One cluster was tagged and treated with each of the treatments on each of 10 vines. The clusters were harvested at commercial maturity. Cluster compactness was assessed by counting the number of berries per cluster and measuring the total rachis length of each cluster and then calculating the number of berries per cm of rachis.

Experiment [5] deals with European seedless cucumber (var. Flamingo) plants. In words: Example 6: foliar spray with ABA, abortion of cucumber fruits. The note with it: ABA 100 ppm sprayed to drip at 20 node growth stage. Type of experiment: in vivo. As to the method:
European seedless cucumber (var. Flamingo) plants were grown in a greenhouse.

The test system of experiment [6] is Thompson Seedless grape. In words: Example 3: spraying Thompson Seedless grape vines, bunch compactness at harvest. Type of experiment: in vivo. To be noted: sprayed twice, at 70% bloom and 100% bloom. As for the experimental part: The applications were made twice, once at 70% bloom and once at 100% bloom. Grape bunch compactness was rated at harvest and the average bunch mass and the average number of berries per gram of rachis was determined.

In the case of `c1ccc(CNc2ncnc3nc[nH]c23)cc1` [BA, benzyladenine], in experiment [1], the “Average Fruit Weight” value amounted to 123 g and the “Number of Fruit per Tree” value is on record as 137. In addition, in experiment [2], the “Average Fruit Weight” value came to 190 g and the “% Fruit Set” value is on record as 75%.
As to “(S)-5-(1-hydroxy-2,6,6,-trimethyl-4-oxo-2-cyclohexen-1-yl)-3-methyl-(2Z,4E)-pentadienoic acid [ABA]”, in experiment [3], the “Number of berries per cluster” value amounted to 54.3 and the “Number of berries per cm rachis” value is on record as 2.0. Moreover, in experiment [4], the “Number of berries per cluster” value is on record as 53.0 and the “Number of berries per cm rachis” value was determined as 1.87. For the same compound, the “Rate of fruit abortion compared to the control plants” value in experiment [5] was “twice”. Further, the “Percentage of basal 18 cucumber fruits per plant that aborted” value in experiment [5] (greenhouse, n = 5 replicate plants) is on record as 68%. In addition, in experiment [2], the “Average Fruit Weight” value turned out to be 146 g and the “% Fruit Set” value worked out at 25%.
For the compound gibberellic acid [GA3], in experiment [3], the “Number of berries per cluster” value came to 37.6 and the “Number of berries per cm rachis” value came to 1.35. In experiment [4], the “Number of berries per cluster” value is reported as 34.8 and the “Number of berries per cm rachis” value worked out at 1.33. Moreover, in experiment [6] (rating scale 1 = very loose bunch, 5 = very tight bunch, rated at harvest), the “Bunch Compactness” value is listed as 2.3. In addition, in experiment [6] (at harvest), the “Average bunch mass” value is listed as 830 g and the “Average number of berries per gram of rachis” value worked out at 5.7.
